Data reported in patent publication US7914891B2, “Wipes including microencapsulated delivery vehicles and phase change materials” (Kimberly-Clark Worldwide, Inc., priority 2005, dated 2011).
Where two headings read alike, the source gives them in different places.

Assays:
[1] = Heat generation after soaking in de-ionized water; assay type: physicochemical; settings: in 7.0 grams de-ionized water; coated samples crushed after 0.5 to 2.0 hours
Procedure: To analyze the samples for heat generation, 0.80 grams of each sample of calcium chloride including a moisture protective layer was added to four separate vials each containing 7.0 grams of de-ionized water and 0.73 grams of the control sample was added to a fifth vial containing 7.0 grams of de-ionized water. Using a J type thermocouple (commercially available from Omega Engineering, Inc., Stamford, Conn.) and a data logger, the temperature of the samples was measured over a period of 180 seconds. The four vials containing the samples of microencapsulated heat delivery vehicle including a moisture protective layer were allowed to remain in the de-ionized water for 0.5 hours, 1.0 hour, 1.5 hours, and 2.0 hours, respectively, at which time the samples were activated by crushing the samples by hand using a metal rod. The temperature of the water in the four vials was measured for a period of 180 seconds after crushing the samples.

[2] = 35 wt % in mineral oil, added to 7.0 grams de-ionized water
Procedure: All five samples were then individually added to 7.0 grams de-ionized water and the resulting temperature rise was measured using a Barnant Scanning Thermocouple (available from Therm-X of California, Hayward, Calif.).
All four samples were then added to 7.0 grams de-ionized water and the resulting temperature rise was measured using a J type Thermocouple (available from Omega Engineering, Inc., Stamford, Conn.).

[3] = tested on: Methicillin-resistant Staphylococcus aureus; settings: 22° C. compared to 50° C.; 0.005% active PHMB
Procedure: This Example utilized 1.5-milliliter tubes containing a 1-milliliter blend of phosphate-buffered saline (pH 7.2) and 5% (w/v) bovine serum albumin soil. The tubes were placed in electric heat blocks set for 22° C., 30° C., 40° C. and 50° C., respectively. The tubes remained in the electric heat blocks for approximately 10 minutes.
After 10 minutes, 0.005% (by weight) active polyhexamehtylene biguanide (PHMB) (commercially available as Cosmocil® CQ from Arch Biocides, Inc., United Kingdom) was added to two tubes at each temperature level. Duplicate tubes without PHMB at each temperature were also made.
The tubes were then vortexed and Methicillin-resistant Staphylococcus aureus (approximately 1×10^5 colony forming units (CFU)) was then added to each tube. All of the tubes were then placed back into the heat blocks at their respective temperatures.
Following a 10-minute contact time, 0.1 milliliters of each sample was transferred to 0.9 milliliters letheen broth to neutralize the PHMB activity. The letheen samples were then plated in duplicate on Tryptic Soy agar plates using a WASP2 spiral plater (commercially available from Don Whitley Scientific, Ltd., Yorkshire, United Kingdom). The plates were inverted and incubated at 37±2° C. for 48 hours.
After 48 hours, the plates were evaluated using a total plate count to determine the biocidal efficacy of each sample.

Compound: [Ca+2].[Cl-].[Cl-] [Example 11 control sample, calcium chloride]
- heat generation after contact with water [1]: produced heat immediately upon being introduced into water but only for a short period of time

Compound: [Ca+2].[Cl-].[Cl-] [anhydrous calcium chloride, calcium chloride]
- rate of heat generation ([2]; particle size 149-355 micrometers vs four other size ranges): generated heat at the highest rate

Compound: [Cl-].[Cl-].[Mg+2] [anhydrous magnesium chloride, magnesium chloride]
- rate of heat generation ([2]; particle size less than 250 micrometers vs three other size ranges): generated heat at the highest rate

Compound: polyhexamethylene biguanide [PHMB]
- LOG10 difference in efficacy [3]: greater than 1.4 LOG10
